# Data: US9745325B2, “Fused heterocyclic compound” (Takeda Pharmaceutical Company Limited, priority 2014, dated 2017)
# How the values were obtained:
# CDC2L6/CycC (CDK19) = target: T1, CDC2L6/CycC (CDK19) (Homo sapiens, UniProt Q9BWU1); assay: CDK19 inhibitory activity (Kinase Tracer-236 / Eu-anti-GST fluorescence assay); assay type: binding; parameters: Percent inhibition of CDK19 activity (%): concentration or dose not given beside the values; conditions: test compound concentration given as '1 1.1.1\4' [sic]
# T1 construct: purchased Carna Biosciences Inc
# Method: (§1) The compound of the present invention was evaluated for its CDK8 inhibitory activity and CDK19 inhibitory activity by the following method. […] The primary diluted solution was dispensed in the amount of 2 μL/well to a 384-well plate, and then, a mixed solution of Eu^3+ Cryptate conjugated mouse monoclonal antibody anti-glutathione S-transferase (Cisbio) diluted 267-fold with an assay buffer and 60 nM Kinase Tracer-236 (Life technologies) was added thereto at 2 μL/well. […] After the addition, the plate was left standing at room temperature for 1 hour, and then, the fluorescence intensity (excitation wavelength 320 nm, fluorescence wavelength 615 nm, 665 nm, delay time 50 μsec) was measured using ann EnVision plate reader (PerkinElmer). The percent inhibition of CDK8 or CDK19 activity by the test compound can be calculated according to the following formula, wherein the fluorescence intensity of a reaction solution in the absence of compound is defined as the control, and the fluorescence intensity of a reaction solution in the presence of 10 μM of control compound is defined as the blank.
# CDK8/CycC = target: T2, CDK8/CycC (Homo sapiens, UniProt P49336); assay: CDK8 inhibitory activity (Kinase Tracer-236 / Eu-anti-GST fluorescence assay); assay type: binding; parameters: Percent inhibition of CDK8 activity (%): concentration or dose not given beside the values; conditions: test compound concentration given as '1 1.1.1\4' [sic]
# T2 construct: purchased Carna Biosciences
# Method: as §1
# [1] = system: human multiple myeloma RPMI8226 cells; assay: Inhibitory activity against human multiple myeloma RPMI8226 cell growth (CellTiter-Glo); assay type: cell-based; conditions: Homo sapiens, RPMI-8226, 192 h, 1 μM test compound, cultured for 8 days; read-out: Percent inhibition of RPMI8226 cell growth (%)
# Method: The compound of the present invention was evaluated for its inhibitory activity against human multiple myeloma RPMI8226 cell growth by the following method.
# A suspension of human multiple myeloma RPMI8226 cells (purchased from the Health Protection Agency) was inoculated at 40 μL (300 cells/well) to a 384-well plate and cultured at 37° C. for 1 day in a 5% CO2 incubator. After the culture, each test compound solution was added thereto at a test concentration of 1 μM using TECAN D300, and the cells were further cultured for 8 days. After the culture, CellTiter-Glo™ Luminescent Cell Viability Assay reagent (Promega) was added at 40 μL/well to a 384-well plate, and the amount of luminescence was measured using a luminometer. Inhibitory activity against human multiple myeloma RPMI8226 cell growth (percent inhibition (%)) of the test compound was calculated according to the following formula, which is based on the hypothesis that the amount of residual ATP reflects the number of cells. In this formula, 100% control represents the amount of luminescence from a well with only 0.1% DMSO added. Percent inhibition (%)=(1−(amount of luminescence of the test compound)÷(100% control))×100
# T2 sequence (P49336 whole entry): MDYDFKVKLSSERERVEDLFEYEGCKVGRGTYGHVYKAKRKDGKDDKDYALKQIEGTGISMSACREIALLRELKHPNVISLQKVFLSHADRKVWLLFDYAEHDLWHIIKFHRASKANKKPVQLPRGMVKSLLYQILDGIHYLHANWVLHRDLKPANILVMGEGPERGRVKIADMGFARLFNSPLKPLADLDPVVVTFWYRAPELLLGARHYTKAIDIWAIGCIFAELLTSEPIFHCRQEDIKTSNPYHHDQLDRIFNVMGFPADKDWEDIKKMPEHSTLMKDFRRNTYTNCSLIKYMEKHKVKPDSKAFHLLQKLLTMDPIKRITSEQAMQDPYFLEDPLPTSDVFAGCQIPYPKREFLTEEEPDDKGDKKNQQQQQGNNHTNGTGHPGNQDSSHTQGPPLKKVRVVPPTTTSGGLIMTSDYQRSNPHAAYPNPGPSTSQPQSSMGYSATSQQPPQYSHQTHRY
# T2 sequence (P24863 whole entry partner): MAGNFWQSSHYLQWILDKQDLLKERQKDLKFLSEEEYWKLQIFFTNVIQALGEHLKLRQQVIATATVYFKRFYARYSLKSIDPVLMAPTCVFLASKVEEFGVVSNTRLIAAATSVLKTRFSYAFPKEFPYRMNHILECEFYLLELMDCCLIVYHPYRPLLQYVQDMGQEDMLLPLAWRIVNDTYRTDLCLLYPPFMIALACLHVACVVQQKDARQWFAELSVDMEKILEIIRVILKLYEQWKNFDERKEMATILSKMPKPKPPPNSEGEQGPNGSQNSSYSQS
# T1 sequence (Q9BWU1 whole entry): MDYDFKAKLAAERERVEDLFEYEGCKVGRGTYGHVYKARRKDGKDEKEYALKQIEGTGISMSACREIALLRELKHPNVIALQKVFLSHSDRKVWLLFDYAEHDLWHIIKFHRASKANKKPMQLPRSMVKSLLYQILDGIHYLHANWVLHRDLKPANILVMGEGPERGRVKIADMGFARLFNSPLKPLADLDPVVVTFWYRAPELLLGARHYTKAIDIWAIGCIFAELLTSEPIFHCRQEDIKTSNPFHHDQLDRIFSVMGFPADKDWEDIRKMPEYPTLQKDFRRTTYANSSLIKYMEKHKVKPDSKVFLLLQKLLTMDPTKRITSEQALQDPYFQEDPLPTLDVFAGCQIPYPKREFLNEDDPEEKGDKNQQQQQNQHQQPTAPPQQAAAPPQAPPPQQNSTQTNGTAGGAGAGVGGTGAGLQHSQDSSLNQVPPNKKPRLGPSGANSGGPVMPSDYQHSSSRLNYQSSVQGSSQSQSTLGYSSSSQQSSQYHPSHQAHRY
# T1 sequence (P24863 whole entry partner): as the sequence (P24863 whole entry partner) above
Percent inhibition of CDK19 activity (%) (CDC2L6/CycC (CDK19)),Percent inhibition of CDK8 activity (%) (CDK8/CycC),SMILES,inhibition at 1 µM [1]
100%,98%,"Cc1nc(N)ccc1Oc1sc(C(N)=O)c2c1-c1sncc1CC2 [Example 29, 8-((6-Amino-2-methylpyridin-3-yl)oxy)-4,5-dihydrothieno[3,4-g][1,2]benzothiazole-6-carboxamide]",70%
102%,104%,"Cc1nc(NC(=O)C2CC2)ccc1Oc1sc(C(N)=O)c2c1-c1sncc1CC2 [Example 30, 8-((6-((Cyclopropylcarbonyl)amino)-2-methylpyridin-3-yl)oxy)-4,5-dihydrothieno[3,4-g][1,2]benzothiazole-6-carboxamide]",71%
101%,103%,"Cc1nc(NC(=O)C2(O)CC2)ccc1Oc1sc(C(N)=O)c2c1-c1sncc1CC2 [Example 31, 8-((6-(((1-Hydroxycyclopropyl)carbonyl)amino)-2-methylpyridin-3-yl)oxy)-4,5-dihydrothieno[3,4-g][1,2]benzothiazole-6-carboxamide]",59%
99%,101%,"NC(=O)c1sc(Oc2ccc(=O)[nH]c2)c2c1CCc1cnsc1-2 [Example 33, 8-((6-Oxo-1,6-dihydropyridin-3-yl)oxy)-4,5-dihydrothieno[3,4-g][1,2]benzothiazole-6-carboxamide]",69%
98%,100%,"CON(C)C(=O)c1sc(Oc2cccnc2C)c2c1CCc1cnsc1-2 [Example 34, N-Methoxy-N-methyl-8-((2-methylpyridin-3-yl)oxy)-4,5-dihydrothieno[3,4-g][1,2]benzothiazole-6-carboxamide]",50%
94%,95%,"Cc1ncccc1Oc1sc(C(=O)Nc2ncco2)c2c1-c1sncc1CC2 [Example 37, 8-((2-Methylpyridin-3-yl)oxy)-N-(1,3-oxazol-2-yl)-4,5-dihydrothieno[3,4-g][1,2]benzothiazole-6-carboxamide]",73%
100%,97%,"Cc1ncccc1Oc1sc(C(=O)NO)c2c1-c1sncc1CC2 [Example 38, N-Hydroxy-8-((2-methylpyridin-3-yl)oxy)-4,5-dihydrothieno[3,4-g][1,2]benzothiazole-6-carboxamide]",67%
95%,97%,"CC(=O)c1sc(Oc2cccnc2C)c2c1CCc1cnsc1-2 [Example 39, 1-(8-((2-Methylpyridin-3-yl)oxy)-4,5-dihydrothieno[3,4-g][1,2]benzothiazol-6-yl)ethanone]",60%
58%,69%,"Cc1ncccc1Oc1sc(C#N)c2c1-c1sncc1CC2 [Example 40, 8-((2-Methylpyridin-3-yl)oxy)-4,5-dihydrothieno[3,4-g][1,2]benzothiazole-6-carbonitrile]",61%
93%,103%,"Cc1ncccc1Oc1sc(C(N)=O)c2c1-c1snnc1CC2 [Example 43, 8-((2-Methylpyridin-3-yl)oxy)-4,5-dihydrothieno[3,4-g][1,2,3]benzothiadiazole-6-carboxamide]",49%
100%,105%,"Cc1nn(C)cc1Oc1sc(C(N)=O)c2c1-c1sncc1CC2 [Example 47, 8-((1,3-Dimethyl-1H-pyrazol-4-yl)oxy)-4,5-dihydrothieno[3,4-g][1,2] benzothiazole-6-carboxamide]",57%
99%,99%,"CC(C)S(=O)(=O)c1ccc(Oc2sc(C(N)=O)c3c2-c2sncc2CC3)cc1 [Example 50, 8-(4-(isopropylsulfonyl)phenoxy)-4,5-dihydrothieno[3,4-g][1,2]benzothiazole-6-carboxamide]",58%
95%,98%,"CCCSc1sc(C(N)=O)c2c1-c1sncc1CC2 [Example 52, 8-(Propylsulfanyl)-4,5-dihydrothieno [3,4-g][1,2]benzothiazole-6-carboxamide]",65%
99%,100%,"CS(=O)(=O)c1ccc(Oc2sc(C(N)=O)c3c2-c2sncc2CC3)cc1 [Example 53, 8-(4-(Methylsulfonyl)phenoxy)-4,5-dihydrothieno[3,4-g][1,2]benzothiazole-6-carboxamide]",61%
101%,100%,"Cc1ncccc1Oc1sc(C(=O)NOCc2ccccc2)c2c1-c1sncc1CC2 [Example 58, N-(Benzyloxy)-8-((2-methylpyridin-3-yl)oxy)-4,5-dihydrothieno[3,4-g][1,2] benzothiazole-6-carboxamide]",49%
100%,100%,"Cc1ncccc1Oc1sc(C(=O)Nn2cccc2)c2c1-c1sncc1CC2 [Example 87, 8-((2-Methylpyridin-3-yl)oxy)-N-(1H-pyrrol-1-yl)-4,5-dihydrothieno [3,4-g][1,2]benzothiazole-6-carboxamide]",48%
99%,102%,NC(=O)c1sc(Oc2ccc(S(F)(F)(F)(F)F)cc2)c2c1CCc1cnsc1-2 [Example 89],54%
102%,102%,NC(=O)c1sc(Oc2ccc(C(F)(F)F)cc2)c2c1CCc1cnsc1-2 [Example 90],55%
95%,90%,CN(C)C(=O)c1ccc(Oc2sc(C(N)=O)c3c2-c2sncc2CC3)cn1 [Example 91],58%
95%,89%,"NC(=O)c1sc(Oc2cncc(Br)c2)c2c1CCc1cnsc1-2 [Example 92, 8-((5-Bromopyridin-3-yl)oxy)-4,5-dihydrothieno[3,4-g][1,2]benzothiazole-6-carboxamide]",58%
96%,87%,"NC(=O)c1sc(Oc2ccc(N)nc2)c2c1CCc1cnsc1-2 [Example 93, 8-((6-Aminopyridin-3-yl)oxy)-4,5-dihydrothieno[3,4-g][1,2]benzothiazole-6-carboxamide]",63%
97%,90%,"CC(=O)Nc1ccc(Oc2sc(C(N)=O)c3c2-c2sncc2CC3)cn1 [Example 94, 8-((6-Acetamidopyridin-3-yl)oxy)-4,5-dihydrothieno[3,4-g][1,2]benzothiazole-6-carboxamide]",63%
89%,97%,"CCOCCOc1sc(C(N)=O)c2c1-c1sncc1CC2 [Example 95, 8-(2-Ethoxyethoxy)-4,5-dihydrothieno [3,4-g][1,2]benzothiazole-6-carboxamide]",69%
100%,110%,"Cn1cc(Oc2sc(C(N)=O)c3c2-c2sncc2CC3)cn1 [Example 96, 8-((1-Methyl-1H-pyrazol-4-yl)oxy)-4,5-dihydrothieno[3,4-g][1,2] benzothiazole-6-carboxamide]",69%
99%,103%,"COCC(=O)Nc1ccc(Oc2sc(C(N)=O)c3c2-c2sncc2CC3)cn1 [Example 97, 8-((6-((Methoxyacetyl)amino)pyridin-3-yl)oxy)-4,5-dihydrothieno[3,4-g][1,2] benzothiazole-6-carboxamide]",55%
